These are literature values, as cited in US20070281007A1, “Mucoadhesive Oral Formulations of High Permeability, High Solubility Drugs” (priority 2004, published 2007).

Like-named read-outs stand apart in the source and are kept apart here.

As a reminder, the bioavailability is the share of a dose that reaches the circulation, judged against a reference dose that is usually intravenous. On to `NCC1(CC(=O)O)CCCCC1` [gabapentin], for which the bioavailability (at best, 900 mg dose, given three times a day) is reported as 60%.

Consider `CC(C)[C@H](N)C(=O)OCCOCn1cnc2c(=O)[nH]c(N)nc21` [valacyclovir], for which the bioavailability (in vivo) is listed as approximately 50%.
